Test results: patent US9540392B2, “Thienopyrimidines” (BAYER PHARMA AKTIENGESELLSCHAFT, priority 2012, dated 2017)

Molecular target: T1, human full-length MKNK1 (Homo sapiens, UniProt Q9BUB5, T385D)
T1 construct: GST (N); purchased Carna Biosciences 02-145; host or cells: insect cells (baculovirus expression system)
Test: MKNK1 kinase high ATP assay (TR-FRET)
Assay type: biochemical
Details: 2 mM ATP, after preincubation with MKNK1; read-out: MKNK1 IC50 (MKNK1 high ATP)
Summary of the method: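 Compound was preincubated 15 min at 22° C. with MKNK1 in 50 mM HEPES pH 7.5, 5 mM MgCl2, 1.0 mM DTT, then the reaction ran 30 min at 22° C. with 2 mM ATP and 0.06 μM biotinylated peptide (final).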

T1 sequence (Q9BUB5 1-424 isoform Q9BUB5-2 T344D): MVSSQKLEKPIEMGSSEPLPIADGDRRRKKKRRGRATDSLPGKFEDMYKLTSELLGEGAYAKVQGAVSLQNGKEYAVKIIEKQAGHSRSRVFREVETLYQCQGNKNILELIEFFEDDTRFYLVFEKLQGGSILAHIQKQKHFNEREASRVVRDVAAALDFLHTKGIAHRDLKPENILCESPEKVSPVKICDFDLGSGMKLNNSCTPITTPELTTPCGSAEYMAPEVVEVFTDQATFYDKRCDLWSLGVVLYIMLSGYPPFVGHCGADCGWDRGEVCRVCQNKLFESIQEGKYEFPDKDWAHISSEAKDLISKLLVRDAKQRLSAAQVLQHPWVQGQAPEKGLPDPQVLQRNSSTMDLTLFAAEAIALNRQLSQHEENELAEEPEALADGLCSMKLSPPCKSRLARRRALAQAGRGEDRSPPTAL

SMILES	IC50
CCOc1cc2[nH]ncc2cc1Nc1ncnc2sc3c(c12)CCC(C(=O)N1CCC1)C3 (racemic) [Example 223, (RS)-Azetidin-1-yl{4-[(6-ethoxy-1H-indazol-5-yl)amino]-5,6,7,8-tetrahydro[1]benzothieno[2,3-d]pyrimidin-7-yl}methanone]	1.5 nM
Cn1cc(CNC(=O)C2CCc3c(sc4ncnc(Nc5ccc6[nH]ncc6c5)c34)C2)cn1 (racemic) [Example 158, (RS)-4-(1H-indazol-5-ylamino)-N-[(1-methyl-1H-pyrazol-4-yl)methyl]-5,6,7,8-tetrahydro[1]benzothieno[2,3-d]pyrimidine-7-carboxamide]	16.5 nM
Cn1nccc1CNC(=O)C1CCc2c(sc3ncnc(Nc4ccc5[nH]ncc5c4)c23)C1 (racemic) [Example 136, (RS)-4-(1H-indazol-5-ylamino)-N-[(1-methyl-1H-pyrazol-5-yl)methyl]-5,6,7,8-tetrahydro[1]benzothieno[2,3-d]pyrimidine-7-carboxamide]	7.6 nM
CC(C)Oc1cc2[nH]ncc2cc1Nc1ncnc2sc3c(c12)CCC(C(=O)N1CC2(CCS2(=O)=O)C1)C3 (racemic) [Example 222, (RS)-(1,1-Dioxido-1-thia-6-azaspiro[3.3]hept-6-yl)(4-{[6-(propan-2-yloxy)-1H-indazol-5-yl]amino}-5,6,7,8-tetrahydro[1]benzothieno[2,3-d]pyrimidin-7-yl)methanone]	0.9 nM
CCCOc1cc2[nH]ncc2cc1Nc1ncnc2sc3c(c12)CCC(C(=O)N(C)C)C3 (racemic) [Example 269, (RS)—N,N-Dimethyl-4-[(6-propoxy-1H-indazol-5-yl)amino]-5,6,7,8-tetrahydro[1]benzothieno[2,3-d]pyrimidine-7-carboxamide]	2.7 nM
O=C(NCc1ccc2c(c1)OCO2)C1CCc2c(sc3ncnc(Nc4ccc5[nH]ncc5c4)c23)C1 (stereo not drawn) [Example 23, N-(1,3-Benzodioxol-5-ylmethyl)-4-(1H-indazol-5-ylamino)-5,6,7,8-tetrahydro[1] benzothieno [2,3-d]pyrimidine-7-carboxamide]	3 nM
CC(C)Oc1cc2[nH]ncc2cc1Nc1ncnc2sc3c(c12)CCC(C(=O)N(C)C(C)C)C3 (racemic) [Example 215, (RS)—N-Methyl-N-(propan-2-yl)-4-{[6-(propan-2-yloxy)-1H-indazol-5-yl]amino}-5,6,7,8-tetrahydro[1]benzothieno[2,3-d]pyrimidine-7-carboxamide]	0.5 nM
O=C(C1CCc2c(sc3ncnc(Nc4ccc5[nH]ncc5c4)c23)C1)N1CCCC1CO (racemic) [Example 186, (RS)-[2-(hydroxymethyl)pyrrolidin-1-yl][4-(1H-indazol-5-ylamino)-5,6,7,8-tetrahydro[1]benzothieno[2,3-d]pyrimidin-7-yl]methanone]	40.6 nM
CN(C)CCN1CCN(C(=O)C2CCc3c(sc4ncnc(Nc5ccc6[nH]ncc6c5)c34)C2)CC1 (racemic) [Example 129, (RS)-{4-[2-(dimethylamino)ethyl]piperazin-1-yl}[4-(1H-indazol-5-ylamino)-5,6,7,8-tetrahydro[1]benzothieno[2,3-d]pyrimidin-7-yl]methanone]	7.7 nM
COc1cc2[nH]ncc2cc1Nc1ncnc2sc3c(c12)CCC(C(=O)N1C[C@@H](O)[C@H](O)C1)C3 (mixture of isomers) [Example 243, [(3R,4R)-3,4-Dihydroxypyrrolidin-1-yl]{(7RS)-4-[(6-methoxy-1H-indazol-5-yl)amino]-5,6,7,8-tetrahydro[1]benzothieno[2,3-d]pyrimidin-7-yl}methanone]	0.3 nM
COc1cc2[nH]ncc2cc1Nc1ncnc2sc3c(c12)CCC(C(=O)N1CC(OC(=O)N(C)C)C1)C3 (racemic) [Example 275, (RS)-1-({4-[(6-Methoxy-1H-indazol-5-yl)amino]-5,6,7,8-tetrahydro[1]benzothieno[2,3-d]pyrimidin-7-yl}carbonyl)azetidin-3-yl dimethylcarbamate]	19.8 nM
COc1cc2[nH]ncc2cc1Nc1ncnc2sc3c(c12)CCC(C(=O)N(C)CC(F)F)C3 (racemic) [Example 170, (RS)—N-(2,2-Difluoroethyl)-4-[(6-methoxy-1H-indazol-5-yl)amino]-N-methyl-5,6,7,8-tetrahydro[1]benzothieno[2,3-d]pyrimidine-7-carboxamide]	0.8 nM
O=C(NCCCN1CCCC1=O)C1CCc2c(sc3ncnc(Nc4ccc5[nH]ncc5c4)c23)C1 (stereo not drawn) [Example 49, 4-(1H-Indazol-5-ylamino)-N-[3-(2-oxopyrrolidin-1-yl)propyl]-5,6,7,8-tetrahydro[1] benzothieno [2,3-d]pyrimidine-7-carboxamide]	13 nM
O=C(NCc1ccncc1)C1CCc2c(sc3ncnc(Nc4ccc5[nH]ncc5c4)c23)C1 (stereo not drawn) [Example 29, 4-(1H-Indazol-5-ylamino)-N-(pyridin-4-ylmethyl)-5,6,7,8-tetrahydro[1] benzothieno [2,3-d]pyrimidine-7-carboxamide]	4 nM
CN(C)c1ccc(CNC(=O)C2CCc3c(sc4ncnc(Nc5ccc6[nH]ncc6c5)c34)C2)cc1 (stereo not drawn) [Example 34, N-[4-(Dimethylamino)benzyl]-4-(1H-indazol-5-ylamino)-5,6,7,8-tetrahydro[1] benzothieno [2,3-d]pyrimidine-7-carboxamide]	5 nM
CCOc1cc2[nH]ncc2cc1Nc1ncnc2sc3c(c12)CCC(C(=O)N(CC)C(C)C)C3 (racemic) [Example 236, (RS)-4-[(6-Ethoxy-1H-indazol-5-yl)amino]-N-ethyl-N-(propan-2-yl)-5,6,7,8-tetrahydro[1]benzothieno[2,3-d]pyrimidine-7-carboxamide]	2.8 nM
O=C(C1CCc2c(sc3ncnc(Nc4ccc5[nH]ncc5c4)c23)C1)N1CCCC(CO)C1 (racemic) [Example 88, (RS)-[3-(hydroxymethyl)piperidin-1-yl][4-(1H-indazol-5-ylamino)-5,6,7,8-tetrahydro[1]benzothieno[2,3-d]pyrimidin-7-yl]methanone]	9.9 nM
CN(CCCO)C(=O)C1CCc2c(sc3ncnc(Nc4ccc5[nH]ncc5c4)c23)C1 (racemic) [Example 202, (RS)-N-(3-hydroxypropyl)-4-(1H-indazol-5-ylamino)-N-methyl-5,6,7,8-tetrahydro[1]benzothieno[2,3-d]pyrimidine-7-carboxamide]	15 nM
CC(C)Oc1cc2[nH]ncc2cc1Nc1ncnc2sc3c(c12)CCC(C(=O)N(C)CC(F)F)C3 (racemic) [Example 216, (RS)—N-(2,2-Difluoroethyl)-N-methyl-4-{[6-(propan-2-yloxy)-1H-indazol-5-yl]amino}-5,6,7,8-tetrahydro[1]benzothieno[2,3-d]pyrimidine-7-carboxamide]	0.5 nM
Cn1nccc1NC(=O)C1CCc2c(sc3ncnc(Nc4ccc5[nH]ncc5c4)c23)C1 (racemic) [Example 117, (RS)-4-(1H-indazol-5-ylamino)-N-(1-methyl-1H-pyrazol-5-yl)-5,6,7,8-tetrahydro[1]benzothieno[2,3-d]pyrimidine-7-carboxamide]	11.2 nM
CCOc1cc2[nH]ncc2cc1Nc1ncnc2sc3c(c12)CCC(C(=O)N1CCN2CCCCC2C1)C3 (racemic) [Example 270, {(7RS)-4-[(6-Ethoxy-1H-indazol-5-yl)amino]-5,6,7,8-tetrahydro[1]benzothieno[2,3-d]pyrimidin-7-yl}[(9aRS)-octahydro-2H-pyrido[1,2-a]pyrazin-2-yl]methanone]	0.4 nM
